According to patent publication US20230406843A1, “Progranulin Modulators and Methods of Using the Same” (ARKUDA THERAPEUTICS, priority 2020, published 2023):
Like-named read-outs stand apart in the source and are kept apart here.

System: progranulin
Test: Progranulin induction cellular assay (ELISA of secreted mouse PGRN)
Assay type: cell-based
Outline: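 Mouse primary microglia, primary cortical neurons and BV-2 cells are used. BV-2 cells are plated in 96-well format the day before, with a 1 h attachment and 16 h incubation. Progranulin secreted into the medium is quantified by ELISA.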

[1] = progranulin induction assay, mouse pMG, primary cortical neurons and BV-2 cell lines named, cell type not given, ELISA-based readout, read-out: EC50
[2] = Mus musculus, BV-2, read-out: EC50 μM

Row | Compound | EC50 [1] | EC50 [2]
1 | CO[C@@H]1CO[C@@H](C(=O)N2CCc3ccccc3[C@@H]2c2ccc(F)cc2)C[C@H]1N [Compound 5247, ((2R,4R,5S)-4-amino-5-methoxytetrahydro-2H-pyran-2-yl)((S)-1-(4-fluorophenyl)-3,4-dihydroisoquinolin-2(1H)-yl)methanone] | 0.095 µM | 
2 | CCO[C@H]1CO[C@@H](C(=O)N2CCc3ccccc3[C@@H]2c2ccc(F)cc2)C[C@H]1N [Compound 5248, ((2R,4R,5R)-4-amino-5-ethoxytetrahydro-2H-pyran-2-yl)((S)-1-(4-fluorophenyl)-3,4-dihydroisoquinolin-2(1H)-yl)methanone] | 0.032 µM | 
3 | N[C@@H]1C[C@H](C(=O)N2CCc3ccccc3[C@@H]2c2ccc(F)cc2)OC[C@@H]1F [Compound 5250, ((2R,4R,5R)-4-amino-5-fluorotetrahydro-2H-pyran-2-yl)((S)-1-(4-fluorophenyl)-3,4-dihydroisoquinolin-2(1H)-yl)methanone] | 0.095 µM | 
4 | N[C@@H]1C[C@H](C(=O)N2CCc3ccccc3[C@@H]2c2ccc(F)cc2)OC[C@H]1F [Compound 5251, ((2R,4R,5S)-4-amino-5-fluorotetrahydro-2H-pyran-2-yl)((S)-1-(4-fluorophenyl)-3,4-dihydroisoquinolin-2(1H)-yl)methanone] | 0.188 µM | 
5 | N[C@H]1CC[C@H](C(=O)N2CCc3ccccc3[C@@H]2c2ccc(F)cc2F)OC1 [Compound 5255] | 0.03 µM | 
6 | N[C@@H]1CCO[C@@H](C(=O)N2CCc3ccccc3[C@@H]2c2ccc(F)cc2F)C1 [Compound 5256] | 0.1 µM | 
7 | N[C@H]1C[C@H](C(=O)N2CCc3ccccc3[C@@H]2c2ccc(F)cc2F)OC[C@H]1O [Compound 5257] | 0.022 µM | 
8 | N[C@@H]1CO[C@@H](C(=O)N2CCc3ccccc3[C@@H]2c2ccc(F)cc2F)C[C@@H]1O [Compound 5258] | 0.062 µM | 
9 | CO[C@H]1C[C@H](C(=O)N2CCc3ccccc3[C@@H]2c2ccc(F)cc2F)OC[C@H]1N [Compound 5259] | 0.046 µM | 
10 | CO[C@@H]1CO[C@@H](C(=O)N2CCc3ccccc3[C@@H]2c2ccc(F)cc2F)C[C@@H]1N [Compound 5261] | 0.079 µM | 
11 | CCO[C@@H]1CO[C@@H](C(=O)N2CCc3ccccc3[C@@H]2c2ccc(F)cc2F)C[C@@H]1N [Compound 5262] | 0.044 µM | 
12 | O=C([C@H]1C[C@@H]2NCCO[C@H]2CO1)N1CCc2ccccc2[C@@H]1c1ccc(F)cc1 [Compound 5266, ((S)-1-(4-fluorophenyl)-3,4-dihydroisoquinolin-2(1H)-yl)((4aR,7R,8aS)-octahydropyrano[3,4-b][1,4]oxazin-7-yl)methanone] | 0.036 µM | 
13 | CC(C)O[C@H]1CO[C@@H](C(=O)N2CCc3ccccc3[C@@H]2c2ccc(F)cc2)C[C@@H]1N [Compound 5267, ((2R,4S,5R)-4-amino-5-isopropoxytetrahydro-2H-pyran-2-yl)((S)-1-(4-fluorophenyl)-3,4-dihydroisoquinolin-2(1H)-yl)methanone] | 0.0001 µM | 
14 | O=C([C@H]1CNCCO1)N1CCc2ccccc2[C@@H]1c1ccc(F)cc1 [Compound 5405, ((S)-1-(4-fluorophenyl)-3,4-dihydroisoquinolin-2(1H)-yl)((R)-morpholin-2-yl)methanone] | 0.736 µM | 
15 | O=C([C@@H]1CNCCO1)N1CCc2ccccc2[C@@H]1c1ccc(F)cc1 [Compound 5406, ((S)-1-(4-fluorophenyl)-3,4-dihydroisoquinolin-2(1H)-yl)((S)-morpholin-2-yl)methanone] | 0.715 µM | 
16 | O=C([C@H]1OCCNC[C@H]1F)N1CCc2ccccc2[C@@H]1c1ccc(F)cc1 [Compound 5421] | 0.843 µM | 
17 | CC(=O)N[C@@H]1CO[C@@H](C(=O)N2CCc3ccccc3[C@@H]2c2ccc(F)cc2)C[C@@H]1N [Compound 5427, N-((3S,4S,6R)-4-amino-6-((S)-1-(4-fluorophenyl)-1,2,3,4-tetrahydroisoquinoline-2-carbonyl)tetrahydro-2H-pyran-3-yl)acetamide] |  | 0.096 µM
18 | C=CCO[C@H]1CO[C@@H](C(=O)N2CCc3ccccc3[C@@H]2c2ccc(F)cc2)C[C@@H]1N [Compound 5476, ((2R,4S,5R)-5-(allyloxy)-4-aminotetrahydro-2H-pyran-2-yl)((S)-1-(4-fluorophenyl)-3,4-dihydroisoquinolin-2(1H)-yl)methanone] |  | 0.001 µM

More lines, main results first:

Row | EC50 [1] | Compound | EC50 [2]
19 | 0.186 µM | CS[C@@H]1CO[C@@H](C(=O)N2CCc3ccccc3[C@@H]2c2ccc(F)cc2)C[C@@H]1N [Compound 5425, ((2R,4S,5S)-4-amino-5-(methylthio)tetrahydro-2H-pyran-2-yl)((S)-1-(4-fluorophenyl)-3,4-dihydroisoquinolin-2(1H)-yl)methanone] | 
20 | 0.441 µM | CS(=O)(=O)[C@@H]1CO[C@@H](C(=O)N2CCc3ccccc3[C@@H]2c2ccc(F)cc2)C[C@@H]1N [Compound 5426, ((2R,4S,5S)-4-amino-5-(methylsulfonyl)tetrahydro-2H-pyran-2-yl)((S)-1-(4-fluorophenyl)-3,4-dihydroisoquinolin-2(1H)-yl)methanone] | 
21 | > 10 µM | CS(=O)(=O)N[C@@H]1CO[C@@H](C(=O)N2CCc3ccccc3[C@@H]2c2ccc(F)cc2)C[C@@H]1N [Compound 5428, N-((3S,4S,6R)-4-amino-6-((S)-1-(4-fluorophenyl)-1,2,3,4-tetrahydroisoquinoline-2-carbonyl)tetrahydro-2H-pyran-3-yl)methanesulfonamide] | 
22 | > 0.3 µM | O=C([C@H]1C[C@@H]2NC=N[C@@H]2CO1)N1CCc2ccccc2[C@@H]1c1ccc(F)cc1 [Compound 5430, ((S)-1-(4-fluorophenyl)-3,4-dihydroisoquinolin-2(1H)-yl)((3aS,6R,7aS)-1,3a,4,6,7,7a-hexahydropyrano[3,4-d]imidazol-6-yl)methanone] | 
23 | 0.029 µM | CN[C@@H]1CO[C@@H](C(=O)N2CCc3ccccc3[C@@H]2c2ccc(F)cc2)C[C@@H]1O [Compound 5431, ((S)-1-(4-fluorophenyl)-3,4-dihydroisoquinolin-2(1H)-yl)((2R,4S,5R)-4-hydroxy-5-(methylamino)tetrahydro-2H-pyran-2-yl)methanone] | 
24 | 0.113 µM | O=C([C@H]1C[C@@H]2OCCN[C@@H]2CO1)N1CCc2ccccc2[C@@H]1c1ccc(F)cc1 [Compound 5432, ((S)-1-(4-fluorophenyl)-3,4-dihydroisoquinolin-2(1H)-yl)((4aR,7R,8aS)-hexahydro-2H,5H-pyrano[4,3-b][1,4]oxazin-7-yl)methanone] | 
25 | 0.151 µM | N[C@H]1C[C@H](C(=O)N2CCc3ccccc3[C@@H]2c2ccc(F)cc2)OC[C@H]1OC(F)F [Compound 5443, ((2R,4S,5S)-4-amino-5-(difluoromethoxy)tetrahydro-2H-pyran-2-yl)((S)-1-(4-fluorophenyl)-3,4-dihydroisoquinolin-2(1H)-yl)methanone] | 
26 | 0.659 µM | CN(C)[C@H]1C[C@H](C(=O)N2CCc3ccccc3[C@@H]2c2ccc(F)cc2)OC[C@H]1O [Compound 5447, ((2R,4S,5S)-4-(dimethylamino)-5-hydroxytetrahydro-2H-pyran-2-yl)((S)-1-(4-fluorophenyl)-3,4-dihydroisoquinolin-2(1H)-yl)methanone] | 
27 | 0.044 µM | O=C([C@H]1C[C@@H]2NCCO[C@@H]2CO1)N1CCc2ccccc2[C@@H]1c1ccc(F)cc1 [Compound 5448, ((S)-1-(4-fluorophenyl)-3,4-dihydroisoquinolin-2(1H)-yl)((4aS,7R,8aS)-octahydropyrano[3,4-b][1,4]oxazin-7-yl)methanone] | 
28 | 0.01 µM | O=C([C@H]1C[C@@H]2NCCN[C@H]2CO1)N1CCc2ccccc2[C@@H]1c1ccc(F)cc1 [Compound 5461, ((S)-1-(4-fluorophenyl)-3,4-dihydroisoquinolin-2(1H)-yl)((4aR,7R,8aS)-octahydro-2H-pyrano[3,4-b]pyrazin-7-yl)methanone] | 
29 | 0.003 µM | CN1CCN[C@H]2C[C@H](C(=O)N3CCc4ccccc4[C@@H]3c3ccc(F)cc3)OC[C@@H]21 [Compound 5462, ((S)-1-(4-fluorophenyl)-3,4-dihydroisoquinolin-2(1H)-yl)((4aR,7R,8aS)-4-methyloctahydro-2H-pyrano[3,4-b]pyrazin-7-yl)methanone] | 
30 | 0.109 µM | C[C@H]1CN[C@H]2C[C@H](C(=O)N3CCc4ccccc4[C@@H]3c3ccc(F)cc3)OC[C@@H]2O1 [Compound 5471, ((S)-1-(4-fluorophenyl)-3,4-dihydroisoquinolin-2(1H)-yl)((3S,4aR,7R,8aS)-3-methyloctahydropyrano[3,4-b][1,4]oxazin-7-yl)methanone] | 
31 | 0.013 µM | C[C@@H]1CN[C@H]2C[C@H](C(=O)N3CCc4ccccc4[C@@H]3c3ccc(F)cc3)OC[C@@H]2O1 [Compound 5472, ((S)-1-(4-fluorophenyl)-3,4-dihydroisoquinolin-2(1H)-yl)((3R,4aR,7R,8aS)-3-methyloctahydropyrano[3,4-b][1,4]oxazin-7-yl)methanone] | 
32 | 0.621 µM | O=C([C@H]1C[C@@H]2NC[C@@H](C(F)(F)F)O[C@H]2CO1)N1CCc2ccccc2[C@@H]1c1ccc(F)cc1 [Compound 5473, ((S)-1-(4-fluorophenyl)-3,4-dihydroisoquinolin-2(1H)-yl)((3S,4aR,7R,8aS)-3-(trifluoromethyl)octahydropyrano[3,4-b][1,4]oxazin-7-yl)methanone] | 
33 | 1.51 µM | O=C([C@H]1C[C@@H]2NC[C@H](C(F)(F)F)O[C@H]2CO1)N1CCc2ccccc2[C@@H]1c1ccc(F)cc1 [Compound 5474, ((S)-1-(4-fluorophenyl)-3,4-dihydroisoquinolin-2(1H)-yl)((3R,4aR,7R,8aS)-3-(trifluoromethyl)octahydropyrano[3,4-b][1,4]oxazin-7-yl)methanone] | 
34 | 0.001 µM | N[C@H]1C[C@H](C(=O)N2CCc3ccccc3[C@@H]2c2ccc(F)cc2)OC[C@@H]1OCC(F)(F)F [Compound 5475, ((2R,4S,5R)-4-amino-5-(2,2,2-trifluoroethoxy)tetrahydro-2H-pyran-2-yl)((S)-1-(4-fluorophenyl)-3,4-dihydroisoquinolin-2(1H)-yl)methanone] | 
35 | 0.19 µM | N[C@H]1CCO[C@@H](C(=O)N2CCc3ccccc3[C@@H]2c2ccc(F)cc2F)C1 [Compound 5500] | 
36 | 3.86 µM | O=C([C@H]1OCCN[C@@H]1CF)N1CCc2ccccc2[C@@H]1c1ccc(F)cc1 [Compound 5501] | 
